{"source": "patent US20240252652A1", "about": "“PROTEINS HAVING UNNATURAL AMINO ACIDS AND METHODS OF USE” (The Regents of the University of California, priority 2021, published 2024)", "system": "m^6A modified RNA", "experiment": "GRIP-seq (high-throughput sequencing)", "format": "cell-based, human", "description": "To detect endogenous m^6A sites in mammalian cells throughout the transcriptome, we developed GRIP-seq through combining GRIP for m^6A with high-throughput sequencing, enabling global identification of m^6A sites in vivo with single-nucleotide resolution (FIG. 12A). In brief. HEK293T cells expressing YTH-397SFY protein (FIG. 19A) were lysed and treated with RNase to partially digest RNA into short fragments. After GRIP for these cell lysates (FIG. 19A), the purified protein-RNA cross-links were treated with proteinase K to release the cross-linked RNA fragments, which were converted into a cDNA library through adapting the enhanced CLIP protocol and then subjected to high-throughput sequencing. All m^6A sites cross-linked by YTH-397SFY protein in vivo would be captured and identified by reverse transcription termination at the upstream cross-linked nucleotides. Van Nostrand et al. Nat. Methods 13:508-514 (2016)\nWe generated four pairs of GRIP-seq libraries. For each pair, we generated one library for the INPUT sample, which represents the RNA fragments from the whole cell lysate, and one library for the IP sample, which represents the RNA fragments cross-linked with the purified YTH proteins. […] For each library, around 10 to 35 million reads were obtained (data not shown). After removing adaptors, we first mapped the reads to the transcriptome. […]", "data": [{"smiles": "COc1ccc(C[C@H](N)C(=O)O)cc1S(=O)(=O)F", "note": "[SFY, (S)-1-carboxy-2-(3-(fluorosulfonyl)-4-methoxyphenyl)ethan-1-aminium]", "values": [{"measurement": "RNA nucleotides cross-linked in vivo", "value": "all four RNA nucleotides"}]}]}
